# From patent US5057520A, “7-(peptidylpyrolidinyl)naphthyridine antibacterial compounds” (Abbott Laboratories, priority 1989, dated 1991)
# What was measured:
# [1] = test system: STREPTOCOCCUS PYOGENES EES61; experiment: In vitro MIC, agar dilution (BHIA); type: cell-based; settings: STREPTOCOCCUS PYOGENES EES61
# [2] = test system: PSEUDOMONAS CEPACIA 296I; experiment: In vitro MIC, agar dilution (BHIA); type: cell-based
# [3] = test system: STREPTOCOCCUS BOVIS A5169; experiment: In vitro MIC, agar dilution (BHIA); type: cell-based; settings: STREPTOCOCCUS BOVIS A5169
# [4] = test system: PSEUDOMONAS AERUGINOSA K799/61; experiment: In vitro MIC, agar dilution (BHIA); type: cell-based
# [5] = test system: STREPTOCOCCUS AGALACTIAE CMX 508; experiment: In vitro MIC, agar dilution (BHIA); type: cell-based; settings: STREPTOCOCCUS AGALACTIAE CMX 508
# [6] = test system: ESCHERICHIA COLI JUHL; experiment: In vitro MIC, agar dilution (BHIA); type: cell-based
# [7] = test system: ACINETOBACTER SP CMX 669; experiment: In vitro MIC, agar dilution (BHIA); type: cell-based
# [8] = test system: ENTEROBACTER AEROGENES ATCC 13048; experiment: In vitro MIC, agar dilution (BHIA); type: cell-based
# [9] = test system: KLEBSIELLA PNEUMONIAE ATCC 8045; experiment: In vitro MIC, agar dilution (BHIA); type: cell-based
# [10] = test system: ESCHERICHIA COLI DC-2; experiment: In vitro MIC, agar dilution (BHIA); type: cell-based
# Excerpt: (§1) The MIC results are in ug/ml.
# [11] = test system: ESCHERICHIA COLI SS; experiment: In vitro MIC, agar dilution (BHIA); type: cell-based
# Excerpt: as §1
# [12] = test system: ESCHERICHIA COLI H560; experiment: In vitro MIC, agar dilution (BHIA); type: cell-based
# Excerpt: as §1
# [13] = test system: STREPTOCOCCUS PYOGENES 2548 INDUC; experiment: In vitro MIC, agar dilution (BHIA); type: cell-based
# [14] = test system: PROVIDENCIA STUARTII CMX 640; experiment: In vitro MIC, agar dilution (BHIA); type: cell-based
# [15] = test system: MICROCOCCUS LUTEUS ATCC 4698; experiment: In vitro MIC, agar dilution (BHIA); type: cell-based
# [16] = Conversion of prodrug to parent drug in whole blood at 37° C.; type: in vitro ADME, Rat
# Procedure: (§2) An aqueous solution of prodrug (Z) is spiked into fresh whole blood containing sodium heparin as an anticoagulant. The sample is mixed gently by inversion and placed in a 37° waterbath. At selected time intervals an 0.5 ml aliquot of blood is removed and placed in a chilled 1.5 ml centrifuge tube (ice temperature). Samples are centrifuges at 13,000 rpm for two minutes to separate plasma. An 0.2 ml aliquot of the plasma sample is combined with 0.2 ml internal standard (7-(4-amino-2-methyl-1-pyrrolidinyl)-1-(2,4-difluorophenyl)-6-fluoro-1,4-d ihydro-4-oxo-1,8-naphthyridine-3-carboxylic acid in 0.2M sodium phosphate pH 7.2 buffer) and 6 mls CH2 Cl2 :EtoH (9:1 by volume). Samples are capped and shaken gently for 10 minutes. Samples are centrifuges at 2500 rpm for 10 minutes (4° C.). The aqueous layer is aspirated to waste and the organic layer is transferred to a conical centrifuge tube and evaporated to dryness with a stream of dry air and low heat ([…]). Samples are reconstituted with 0.2 ml mobile phase followed by vortexing. Samples are centrifuges at 2500 rpm for 10 minutes to separate precipitate. The supernatant is transferred to a WISP vial with plastic insert for HPLC analysis.
# [17] = test system: MICROCOCCUS LUTEUS ATCC 9341; experiment: In vitro MIC, agar dilution (BHIA); type: cell-based
# [18] = test system: E. Coli Juhl; experiment: Acute mouse protection test; type: in vivo; settings: mice infected i.p. with E. Coli JUHL, observed 7 days
# [19] = test system: PSEUDOMONAS AERUGINOSA A5007; experiment: In vitro MIC, agar dilution (BHIA); type: cell-based
# [20] = test system: ESCHERICHIA COLI KNK 437; experiment: In vitro MIC, agar dilution (BHIA); type: cell-based
# [21] = Conversion of prodrug to parent drug in whole blood at 37° C.; type: in vitro ADME, Dog
# [22] = test system: Stap. Aureus NCTC 10649; experiment: Acute mouse protection test; type: in vivo; settings: mice infected i.p. with Stap. Aureus NCTC 10649, observed 7 days
# [23] = test system: P. Aeruginosa A5007; experiment: Acute mouse protection test; type: in vivo; settings: mice infected i.p. with P. Aeruginosa A5007, observed 7 days
# [24] = Conversion of prodrug to parent drug in whole blood at 37° C.; type: in vitro ADME, Human
# Procedure: as §2
# [25] = test system: PSEUDOMONAS AERUGINOSA BMH10; experiment: In vitro MIC, agar dilution (BHIA); type: cell-based
# [26] = test system: ENTEROCOCCUS FAECIUM ATCC 8043; experiment: In vitro MIC, agar dilution (BHIA); type: cell-based
# [27] = test system: PSEUDOMONAS AERUGINOSA K799/WT; experiment: In vitro MIC, agar dilution (BHIA); type: cell-based
# [28] = test system: STREPTOCOCCUS PYOGENES 930 CONST; experiment: In vitro MIC, agar dilution (BHIA); type: cell-based
# [29] = SC dosing at 1 and 5 hours post-infection
# [30] = oral dosing at 1 and 5 hours post-infection
smiles,measurement,setting,value
CC(N)C(=O)NC(C)C(=O)NC1CCN(c2nc3c(cc2F)c(=O)c(C(=O)O)cn3-c2ccc(F)cc2F)C1 (centres unmarked) [Example 15],Solubility pH 7.4,,1.07 mg/ml
same,MIC,[1],12.5 µg/mL
same,MIC,[2],50 µg/mL
same,MIC,[3],50 µg/mL
same,MIC,[4],3.1 µg/mL
same,MIC,[5],12.5 µg/mL
same,MIC,[6],12.5 µg/mL
same,MIC,[7],12.5 µg/mL
same,MIC,[8],25 µg/mL
same,MIC,[9],12.5 µg/mL
same,MIC,[10],100 µg/mL
same,MIC,[11],.39 µg/mL
same,MIC,[12],6.2 µg/mL
same,MIC,[13],12.5 µg/mL
same,MIC,[14],100 µg/mL
same,MIC,[15],100 µg/mL
same,Half Life Rat,[16],1.41 min
same,MIC,[17],> 100 µg/mL
same,SC (ED50),[18]; [29],0.5 mg/kg/day
same,Oral (ED50),[18]; [30],2.0 mg/kg/day
same,MIC,[19],100 µg/mL
same,MIC,[20],50 µg/mL
same,Half Life Dog,[21],2.4 m
same,SC (ED50),[22]; [29],0.8 mg/kg/day
same,Oral (ED50),[22]; [30],1.3 mg/kg/day
same,SC (ED50),[23]; [29],3.1 mg/kg/day
same,Oral (ED50),[23]; [30],9.1 mg/kg/day
same,Half Life Human,[24],3.0 m
same,MIC,[25],100 µg/mL
same,MIC,[26],50 µg/mL
same,MIC,[27],50 µg/mL
same,MIC,[28],12.5 µg/mL
